Among the test systems are MCF7; PC-3; MDA-MB-435; RPMI-8226; HCC 2998; MOLT-4; HCT-15; EKVX; OVCAR-8; SNB-19; SN12C; SF-295; OVCAR-4; TK-10; OVCAR-3; HL-60; COLO 205; A498; NCI-H226.
Experiment in all cases: NCI tumour cell line growth inhibition, 48 h

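Cultured in 96-well plates, cells were exposed to test compound for 48 hours across five concentrations. GI50 is the concentration that inhibits growth by half.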 Active and inactive are the calls of the source. No stated cut-off is given here; in the data, active = GI50 up to about 1.1 µM and inactive = higher.

Regarding `NC(=O)C(N)CC12CC3CC(CC(C3)C1)C2` (stereo not drawn), the GI50 with MCF7 was 20 µM (inactive); in the test on PC-3, 18.2 µM (inactive); in the test with MDA-MB-435, 16 µM (inactive); in the test with RPMI-8226, 19.6 µM (inactive); with HCC 2998, 21.6 µM (inactive); with MOLT-4, 21 µM (inactive). Also, the GI50 was 31.6 µM with HCT-15; 29.6 µM (inactive) in the test on EKVX; 23.9 µM (inactive) with OVCAR-8; 23.7 µM (inactive) in the test on SNB-19; 21 µM (inactive) in the test with SN12C; 23.3 µM (inactive) in the test on SF-295. For the same compound, the GI50 was 17.5 µM (inactive) with OVCAR-4 and 29.6 µM (inactive) with TK-10.
Turning to `COc1ccc2c(=O)c([Se]c3coc4cc(OC)ccc4c3=O)coc2c1`, the GI50 is > 100 µM (inactive) with RPMI-8226; > 100 µM (inactive) in the test on HCC 2998; 51.8 µM (inactive) with MOLT-4; 50.9 µM in the test on HCT-15; 46.8 µM (inactive) with EKVX; 41.7 µM (inactive) in the test on OVCAR-8. For the same compound, the GI50 in the test on OVCAR-3 is > 100 µM (inactive); in the test with SNB-19, > 100 µM (inactive); in the test with SN12C, 54.5 µM (inactive); in the test on SF-295, 24.7 µM (inactive); with HL-60, 40.4 µM (inactive); with COLO 205 it was > 100 µM (inactive). Besides, the GI50 with OVCAR-4 is 44.6 µM (inactive); with A498, 57.3 µM (inactive); in the test on TK-10, > 100 µM (inactive); in the test with NCI-H226 it was 52 µM (inactive).
`COc1ccc(C(=C[N+](=O)[O-])c2ccc(OC)cc2)cc1`: the GI50 is 3.84 µM (inactive) in the test with RPMI-8226; 11.4 µM (inactive) in the test with HCC 2998; 3.17 µM (inactive) with MOLT-4; 8.05 µM with HCT-15; 42.3 µM (inactive) in the test on EKVX; 13 µM (inactive) in the test with OVCAR-8. The GI50 is 14.1 µM (inactive) in the test with OVCAR-3; 22.2 µM (inactive) with SNB-19; 24 µM (inactive) in the test with SN12C; 5.96 µM (inactive) in the test with SF-295; 5.19 µM (inactive) with HL-60; 9.79 µM (inactive) with COLO 205. For the same compound, the GI50 is 34.4 µM (inactive) in the test with OVCAR-4, 8.2 µM (inactive) in the test with A498, 25.4 µM (inactive) with TK-10 and 24.3 µM (inactive) with NCI-H226.
For the compound `N/N=C(/C(=O)Nc1cccc(Cl)c1)C(C(=O)c1ccc(O)cc1O)C1OC(=O)c2ccccc21` (stereo not drawn), the GI50 in the test on RPMI-8226 was 90.6 µM (inactive); in the test with HCC 2998, > 100 µM (inactive); with MOLT-4, 31.8 µM (inactive); with HCT-15 it was above 100 µM; in the test on EKVX, > 100 µM (inactive); in the test on OVCAR-8, > 100 µM (inactive). Besides, the GI50 in the test with OVCAR-3 was > 100 µM (inactive); with SNB-19 it was 68.2 µM (inactive); in the test on SN12C it was > 100 µM (inactive); in the test with SF-295, 85.9 µM (inactive); in the test with HL-60, > 100 µM (inactive); in the test on COLO 205, > 100 µM (inactive). Also, the GI50 in the test on OVCAR-4 was > 100 µM (inactive); with A498, 25.5 µM (inactive); in the test on TK-10 it was > 100 µM (inactive); in the test on NCI-H226, 95.1 µM (inactive).
For the compound `O=C(/C=C\c1cccc2ccccc12)c1ccc(Br)cc1`, the GI50 with RPMI-8226 is 14.8 µM (inactive); in the test with HCC 2998, 17.5 µM (inactive); in the test with MOLT-4, 31 µM (inactive); with HCT-15, 17.7 µM; in the test on EKVX, 24 µM (inactive); with OVCAR-8 it was 17.5 µM (inactive). The GI50 is 18.4 µM (inactive) in the test on OVCAR-3; 25.7 µM (inactive) in the test on SNB-19; 34.8 µM (inactive) in the test on SN12C; 22.4 µM (inactive) with SF-295; 15 µM (inactive) with HL-60; 31.1 µM (inactive) in the test with COLO 205. Further, the GI50 with OVCAR-4 was 16.4 µM (inactive); with A498, > 100 µM (inactive); with TK-10, 51.3 µM (inactive); with NCI-H226 it was 50.7 µM (inactive).
For `O=C(Nc1ccc(Sc2ccc(/N=N/c3c(O)c(S(=O)(=O)O)cc4cc(S(=O)(=O)O)ccc34)cc2)cc1)c1ccc(/N=N/c2c(O)ccc3c(S(=O)(=O)O)cc(S(=O)(=O)O)cc23)cc1`, the GI50 in the test with RPMI-8226 is 10.4 µM (inactive); in the test with HCC 2998, > 100 µM (inactive); with MOLT-4, 12.8 µM (inactive); in the test on HCT-15, 27.5 µM; with EKVX it was 17.3 µM (inactive); in the test with OVCAR-8, 20.8 µM (inactive). In addition, the GI50 in the test on OVCAR-3 is 19.8 µM (inactive); in the test on SNB-19, 41.1 µM (inactive); in the test with SN12C, 42.2 µM (inactive); in the test with SF-295, 62.7 µM (inactive); in the test on HL-60, 10.3 µM (inactive); in the test on COLO 205, 15.8 µM (inactive). For the same compound, the GI50 in the test on OVCAR-4 was 33.8 µM (inactive); with A498, 26 µM (inactive); with TK-10 it was 60.8 µM (inactive); in the test with NCI-H226, > 100 µM (inactive).
With `CC(=O)NC(NCCN)(c1ccccc1)c1ccccc1`, the GI50 was > 100 µM (inactive) with MCF7; > 100 µM (inactive) in the test on MDA-MB-435; > 100 µM (inactive) in the test with RPMI-8226; > 100 µM (inactive) in the test on HCC 2998; > 100 µM (inactive) in the test with MOLT-4; above 100 µM in the test on HCT-15. The GI50 in the test with EKVX, in the test with OVCAR-8, with SNB-19, with SN12C, with SF-295 and with HL-60 was > 100 µM (inactive) in each case. Also, the GI50 with COLO 205 was > 100 µM (inactive); in the test with OVCAR-4, > 100 µM (inactive); in the test with A498, 59.4 µM (inactive); with TK-10 it was > 100 µM (inactive); in the test on NCI-H226 it was > 100 µM (inactive).
`COc1cc2c3c(c1OC)-c1ccccc1C(C(OC(C)=O)c1ccccc1)C3N(C)CC2` (stereo not drawn): the GI50 in the test with RPMI-8226 was 5.55 µM (inactive); in the test with HCC 2998 it was 6.81 µM (inactive); in the test on MOLT-4, 7.59 µM (inactive); in the test on HCT-15, 27.7 µM; in the test on EKVX, > 100 µM (inactive); in the test with OVCAR-8, 34.8 µM (inactive). Further, the GI50 with OVCAR-3 was 43.4 µM (inactive); with SNB-19, 48.4 µM (inactive); in the test on SN12C it was 34.7 µM (inactive); in the test on SF-295, > 100 µM (inactive); with HL-60, 5.4 µM (inactive); with COLO 205, 30.3 µM (inactive). Besides, the GI50 was 9.16 µM (inactive) with OVCAR-4, 31.7 µM (inactive) in the test on A498, > 100 µM (inactive) in the test on TK-10 and 47.2 µM (inactive) in the test with NCI-H226.
As to `COc1cc2c(c(OC)c1OC)-c1ccc(SC)c(=O)cc1[C@@H](NCc1cccc(C#N)c1)CC2`, the GI50 in the test with RPMI-8226 is 0.0345 µM (active); in the test with HCC 2998 it was 0.0198 µM (active); in the test with MOLT-4, 0.0328 µM (active); with HCT-15, 0.0239 µM; in the test with EKVX, 0.0973 µM (active); in the test with OVCAR-8 it was 0.0222 µM (active). The GI50 in the test with OVCAR-3 is 0.0168 µM (active); in the test with SNB-19, 0.045 µM (active); with SN12C it was 0.0313 µM (active); with SF-295, 0.0207 µM (active); in the test with HL-60, 0.0419 µM (active); with COLO 205, 0.0202 µM (active). In addition, the GI50 in the test with OVCAR-4 is 0.0075 µM (active); with A498, 0.0161 µM (active); in the test on TK-10, 0.0841 µM (active); with NCI-H226, 0.0226 µM (active).

Source of the values: ChEMBL document CHEMBL1201862, “PubChem BioAssay data set” (2004).
